Our source for the EC50 and CC50 values is US20260325561A1, “4'-SUBSTITUTED NUCLEOSIDES AND NUCLEOTIDES AS ANTIVIRAL AGENTS” (THE SCRIPPS RESEARCH INSTITUTE, priority 2023, published 2026).

In one data set the test system is DENV-2. Description: microbe, parasite or virus in culture. Format: cell-based, DENV-2 16681. Particulars: Dengue virus, DENV2, HepG2, 24 h, read-out: DENV-2 / HepG2 EC50.
The test system of another data set is SARS-CoV-2. Description: microbe, parasite or virus in culture. Particulars: Severe acute respiratory syndrome coronavirus 2, HeLa-ACE2, 24 h, read-out: SARS-CoV-2 / HeLa-ACE2 EC50. It counts as cell-based, SARS-CoV-2 strain USA-WA1/2020.
The subject of a further data set is RSV A2. Description: microbe, parasite or virus in culture. Format: cell-based. Particulars: human respiratory syncytial virus, HEp-2, 72 h, read-out: RSV A2 / Hep2 EC50.
In the next data set the test system is HRV 14. Description: microbe, parasite or virus in culture. Format: cell-based, Human Rhinovirus 14 strain 1059. Particulars: Rhinovirus B, H1-HeLa, 48 h, read-out: HRV / H1 HeLa B 14 EC50.
Another data set concerns HRV 16. Description: microbe, parasite or virus in culture. Particulars: Rhinovirus A, H1-HeLa, 48 h, read-out: HRV / H1 HeLa A16 EC50. It counts as cell-based, Human Rhinovirus 16 strain 11757.
Data set [1] in a line: in vitro. Particulars: human, hepg2 cells.
Data set [2] in a line: in vitro. The note with it: human, hela-ace2 cells.
A short description of data set [3]: in vitro. The note with it: human, hep2 cells.
A short description of data set [4]: in vitro. The note with it: human, h1 hela cells.

With `C[C@]1(O)[C@H](n2ccc3c(N)ncnc32)O[C@](F)(CO)[C@H]1O` [Example 10, (2S,3S,4R,5R)-5-(4-amino-7H-pyrrolo[2,3-d]pyrimidin-7-yl)-2-fluoro-2-(hydroxymethyl)-4-methyltetrahydrofuran-3,4-diol], the EC50 in the data set on DENV-2, in the data set with SARS-CoV-2, in the data set with RSV A2, in the data set on HRV 14 and in the data set with HRV 16 was greater than 10 µM throughout. Besides, in “in vitro [1]”, the CC50 (in general, the concentration giving 50% cytotoxicity) at 72 h is greater than 99 µM. This compound also came in with a CC50 at 24 h in “in vitro [2]” greater than 99 µM. The CC50 in “in vitro [3]” and in the data set “in vitro [4]” was greater than 99 µM in each case.

With `C#Cc1nc(N)c2ncn([C@@H]3O[C@](F)(CO)[C@@H](O)[C@H]3O)c2n1` [Example 18, (2S,3S,4R,5R)-5-(6-amino-2-ethynyl-9H-purin-9-yl)-2-fluoro-2-(hydroxymethyl)tetrahydrofuran-3,4-diol], the EC50 with DENV-2, with SARS-CoV-2, with RSV A2, with HRV 14 and in the data set with HRV 16 was greater than 10 µM in each case. Further, the CC50 at 72 h in the data set “in vitro [1]” is greater than 99 µM. The same compound came in with a 50% cytotoxic concentration (CC50) at 24 h in “in vitro [2]” greater than 99 µM. For the same compound, the CC50 in “in vitro [3]” and in the data set “in vitro [4]” was greater than 99 µM each time.

With `OC[C@@]1(F)O[C@@H](n2ccc3cncnc32)[C@H](O)[C@@H]1O` [Example 23, (2S,3S,4R,5R)-2-fluoro-2-(hydroxymethyl)-5-(7H-pyrrolo[2,3-d]pyrimidin-7-yl)tetrahydrofuran-3,4-diol], the EC50 in the data set on DENV-2 lay within 0.1 to 1 µM; in the data set with SARS-CoV-2, 1 to 10 µM; in the data set with RSV A2 it was 1 to 10 µM; in the data set with HRV 14, 1 to 10 µM; in the data set on HRV 16 it was 1 to 10 µM. The 50% cytotoxic concentration (CC50) at 72 h in the data set “in vitro [1]” is 1 to 10 µM. In “in vitro [2]”, the 50% cytotoxic concentration (CC50) at 24 h was 1 to 10 µM. Also, the CC50 in “in vitro [3]” and in “in vitro [4]” was 10 to 99 µM throughout.

For `N#Cc1cn([C@@H]2O[C@](F)(CO)[C@@H](O)[C@H]2O)c2ncnc(N)c12` [Example 26, 4-amino-7-((2R,3R,4S,5S)-5-fluoro-3,4-dihydroxy-5-(hydroxymethyl)tetrahydrofuran-2-yl)-7H-pyrrolo[2,3-d]pyrimidine-5-carbonitrile], the EC50 with DENV-2 was less than 0.1 µM; with SARS-CoV-2, 0.1 to 1 µM; in the data set with RSV A2 it was less than 0.1 µM; in the data set with HRV 14, greater than 10 µM; in the data set on HRV 16 it was greater than 10 µM. Besides, the CC50 at 72 h in the data set “in vitro [1]” is less than 1 µM. The same compound registered a cytotoxic concentration (CC50) at 24 h in “in vitro [2]” of less than 1 µM. Also, the CC50 is less than 1 µM in “in vitro [3]” and 1 to 10 µM in the data set “in vitro [4]”.

As to `Nc1nc(Cl)c2ccn([C@@H]3O[C@](F)(CO)[C@@H](O)[C@H]3O)c2n1` [Example 27, (2S,3S,4R,5R)-5-(2-amino-4-chloro-7H-pyrrolo[2,3-d]pyrimidin-7-yl)-2-fluoro-2-(hydroxymethyl)tetrahydrofuran-3,4-diol], the EC50 in the data set on DENV-2, in the data set on SARS-CoV-2, with RSV A2, in the data set with HRV 14 and in the data set on HRV 16 was greater than 10 µM each time. The half-maximal cytotoxic concentration (CC50) at 72 h in “in vitro [1]” lay within 10 to 99 µM. This compound also showed a CC50 at 24 h in the data set “in vitro [2]” of 10 to 99 µM. Further, the CC50 in the data set “in vitro [3]” and in the data set “in vitro [4]” was 10 to 99 µM throughout.

As for `Cc1nc(Cl)c2ccn([C@@H]3O[C@](F)(CO)[C@@H](O)[C@H]3O)c2n1` [Example 29, (2S,3S,4R,5R)-5-(4-chloro-2-methyl-7H-pyrrolo[2,3-d]pyrimidin-7-yl)-2-fluoro-2-(hydroxymethyl)tetrahydrofuran-3,4-diol], the EC50 in the data set with DENV-2, with SARS-CoV-2, in the data set with RSV A2, with HRV 14 and with HRV 16 was greater than 10 µM in each case. In the data set “in vitro [1]”, the CC50 at 72 h is greater than 99 µM. The same compound displayed a cytotoxic concentration (CC50) at 24 h in “in vitro [2]” greater than 99 µM. For the same compound, the CC50 in “in vitro [4]” was greater than 99 µM.

In the case of `CC(C)OC(=O)[C@H](C)N[P@@](=O)(OC[C@@]1(F)O[C@@H](n2ccc3c(N)ncnc32)[C@H](O)[C@@H]1O)Oc1ccccc1` [Example 49, isopropyl ((R)-(((2S,3S,4R,5R)-5-(4-amino-7H-pyrrolo[2,3-d]pyrimidin-7-yl)-2-fluoro-3,4-dihydroxytetrahydrofuran-2-yl)methoxy)(phenoxy)phosphoryl)-L-alaninate], the EC50 with DENV-2 was 1 to 10 µM; with SARS-CoV-2, greater than 10 µM; in the data set with HRV 14 it was 1 to 10 µM; in the data set on HRV 16 it was greater than 10 µM. Further, in “in vitro [1]”, the CC50 at 72 h is greater than 99 µM. Moreover, the CC50 at 24 h in the data set “in vitro [2]” was greater than 99 µM. The cytotoxic concentration (CC50) in the data set “in vitro [4]” was greater than 99 µM.

With `C[C@]1(Cl)[C@H](n2cnc3c(=O)[nH]c(N)nc32)O[C@](F)(CO)[C@H]1O` [Example 62, 2-amino-9-((2R,3R,4R,5S)-3-chloro-5-fluoro-4-hydroxy-5-(hydroxymethyl)-3-methyltetrahydrofuran-2-yl)-1,9-dihydro-6H-purin-6-one], the EC50 in the data set on DENV-2 was 0.1 to 1 µM; in the data set on SARS-CoV-2, greater than 10 µM; in the data set with RSV A2, greater than 10 µM; with HRV 14 it was greater than 10 µM. Also, the cytotoxic concentration (CC50) at 72 h in “in vitro [1]” is 10 to 99 µM. This compound also displayed a half-maximal cytotoxic concentration (CC50) at 24 h in the data set “in vitro [2]” greater than 99 µM. Besides, the half-maximal cytotoxic concentration (CC50) in the data set “in vitro [3]” and in “in vitro [4]” was 10 to 99 µM throughout.

Turning to `CCOc1nc(N)nc2c1ncn2[C@@H]1O[C@](F)(COP(=O)(N[C@@H](C)C(=O)OC(C)C)Oc2ccccc2)[C@@H](O)[C@@]1(C)Cl` (stereo partly drawn) [Example 64, isopropyl ((((2S,3R,4R,5R)-5-(2-amino-6-ethoxy-9H-purin-9-yl)-4-chloro-2-fluoro-3-hydroxy-4-methyltetrahydrofuran-2-yl)methoxy)(phenoxy)phosphoryl)-L-alaninate], the EC50 with DENV-2 was 1 to 10 µM; with SARS-CoV-2 it was greater than 10 µM; with RSV A2 it was greater than 10 µM; in the data set on HRV 14 it was greater than 10 µM. The compound further came in with a CC50 at 72 h in the data set “in vitro [1]” of 10 to 99 µM. Besides, the CC50 at 24 h in “in vitro [2]” lay in the range of 10 to 99 µM. Moreover, the CC50 in the data set “in vitro [3]” and in the data set “in vitro [4]” was 10 to 99 µM in each case.

On to `C[C@H](NP(=O)(OC[C@@]1(F)O[C@@](C#N)(c2cnc3c(N)ncnn23)[C@H](O)[C@@H]1O)Oc1cccc2ccccc12)C(=O)OCC(C)(C)C` (stereo partly drawn) [Example 65, neopentyl ((((2S,3S,4R,5R)-5-(4-aminoimidazo[2,1-f][1,2,4]triazin-7-yl)-5-cyano-2-fluoro-3,4-dihydroxytetrahydrofuran-2-yl)methoxy)(naphthalen-1-yloxy)phosphoryl)-L-alaninate], for which the EC50 in the data set on DENV-2 is 1 to 10 µM; in the data set with SARS-CoV-2, 1 to 10 µM; with RSV A2 it was greater than 10 µM; with HRV 14 it was greater than 10 µM. Also, in “in vitro [1]”, the cytotoxic concentration (CC50) at 72 h was in the range of 1 to 10 µM. Besides, the half-maximal cytotoxic concentration (CC50) at 24 h in the data set “in vitro [2]” fell in the range of 10 to 99 µM. In addition, the 50% cytotoxic concentration (CC50) in the data set “in vitro [3]” and in the data set “in vitro [4]” was 10 to 99 µM each time.

On to `CCOc1nc(N)nc2c1ncn2[C@@H]1O[C@](F)(CO[P@@](=O)(N[C@@H](C)C(=O)OC(C)C)Oc2ccccc2)[C@@H](O)[C@]1(F)Cl` [Example 67, isopropyl ((((2S,3R,4S,5R)-5-(2-amino-6-ethoxy-9H-purin-9-yl)-4-chloro-2,4-difluoro-3-hydroxytetrahydrofuran-2-yl)methoxy)(phenoxy)phosphoryl)-L-alaninate], for which the EC50 with DENV-2 was 1 to 10 µM; with SARS-CoV-2, greater than 10 µM; with RSV A2, greater than 10 µM; with HRV 14, 1 to 10 µM. The compound also displayed a CC50 at 72 h in “in vitro [1]” of 10 to 99 µM. Further, the CC50 at 24 h in the data set “in vitro [2]” lay in the range of 10 to 99 µM. For the same compound, the CC50 in the data set “in vitro [3]” and in the data set “in vitro [4]” was 10 to 99 µM throughout.

`CCOc1nc(N)nc2c1ncn2[C@@H]1O[C@](F)(CO)[C@@H](O)[C@]1(F)Br` [Example 68, (2S,3R,4S,5R)-5-(2-amino-6-ethoxy-9H-purin-9-yl)-4-bromo-2,4-difluoro-2-(hydroxymethyl)tetrahydrofuran-3-ol]: the EC50 with DENV-2, with SARS-CoV-2, with RSV A2 and in the data set with HRV 14 was greater than 10 µM throughout. In the data set “in vitro [1]”, this compound displayed a CC50 at 72 h of 10 to 99 µM. The CC50 at 24 h in “in vitro [2]” is greater than 99 µM. Besides, the cytotoxic concentration (CC50) in “in vitro [3]” and in “in vitro [4]” was 10 to 99 µM in each case.

As for `C#C[C@]1(O)[C@H](n2ccc3c(NCCC)ncnc32)O[C@](F)(CO)[C@H]1O` [Example 70, (2S,3S,4R,5R)-4-ethynyl-2-fluoro-2-(hydroxymethyl)-5-(4-(propylamino)-7H-pyrrolo[2,3-d]pyrimidin-7-yl)tetrahydrofuran-3,4-diol], the EC50 with DENV-2, in the data set with SARS-CoV-2, with RSV A2 and with HRV 14 was greater than 10 µM each time. The compound also showed a CC50 at 72 h in the data set “in vitro [1]” of 10 to 99 µM. The CC50 at 24 h in “in vitro [2]” was greater than 99 µM. Moreover, the cytotoxic concentration (CC50) in “in vitro [3]” and in “in vitro [4]” was 10 to 99 µM in each case.

Take `CSc1ncnc2c1ccn2[C@@H]1O[C@](F)(CO)[C@@H](O)[C@H]1O` [Example 72, (2S,3S,4R,5R)-2-fluoro-2-(hydroxymethyl)-5-(4-(methylthio)-7H-pyrrolo[2,3-d]pyrimidin-7-yl)tetrahydrofuran-3,4-diol]: the EC50 was 1 to 10 µM in the data set on DENV-2, 1 to 10 µM in the data set on SARS-CoV-2, greater than 10 µM in the data set on RSV A2 and greater than 10 µM in the data set with HRV 14. This compound also registered a CC50 at 72 h in “in vitro [1]” of 10 to 99 µM. This compound also came in with a 50% cytotoxic concentration (CC50) at 24 h in “in vitro [2]” of 10 to 99 µM. The figures for the CC50 in the data set “in vitro [3]” and in the data set “in vitro [4]” were 10 to 99 µM and greater than 99 µM, respectively.
